Test results reported in PMC5651845, “A New Generation of Arachidonic Acid Analogues as Potential Neurological Agent Targeting Cytosolic Phospholipase A2” (Scientific Reports, 2017).

How the values were obtained:
Type in all cases: cell-based, murine
[1] = test system: ROS production in BV-2 cells; assay: ROS assay (CM-H2DCFDA) in LPS-stimulated BV-2 cells; details: 2, 10 and 20 μM, 2 µg/mL LPS, 14 h
Procedure: CM-H2DCFDA was used as the main detection reagent for ROS for this study. Being a chloromethyl derivative of the conventional H2DCFDA, it is better retained in the cells due to the reaction of its chloromethyl group with intracellular thiol species. In addition, esterase present in the cells would convert the acetate group found in CM-H2DCFDA into carboxylic acid, further retaining it in the cell. To investigate the ROS production by BV-2 cell stimulated with LPS, intracellular ROS was measured 14 h post-stimulation with CM-H2DCFDA fluorescence. A 2-fold increase in ROS was detected as compared to the control. […] This could be because the activation of ROS production might not be solely due to the inflammatory pathway mechanism involving cPLA2. It was reported in previous studies that a multitude of several other processes producing ROS may be at work[51],[52].
20,000 BV-2 cells were seeded into a 96-well plate in 100 uL of culture medium and allowed to grow overnight. When a 90% cell confluency was observed, lipopolysaccharide pre-dissolved in culture medium to achieve a concentration of 2 μg/mL was added to each well of the 96 well. Different concentrations of test compounds in DMSO were added to the LPS containing medium and was then transferred to the cells. […] Fluorescence detection was done by exciting the dye at 485 nm and detection of emission at 525 nm. […]

[2] = test system: iNOS expression in BV-2 cells; assay: iNOS protein expression (western blot) in LPS-stimulated BV-2 cells; details: 2 μg/mL LPS, 14 h
From the text: It is well-established that reactive oxygen species (ROS) and nitric oxide (NO), produced during microglia activation, contribute to inflammatory response and cytotoxic damage to the surrounding neurons and neighbouring cells. Recent studies have shown that BV-2 microglial cell could serve as an in vitro model to mimic such neuroinflammatory states when stimulated with lipopolysaccharide (LPS)[49]. LPS activates BV-2 cells by triggering a cascade of inflammatory events which includes the production of NO. This event is characterized by the generation of the biomarker, inducible nitric oxide synthase (iNOS), as well as ROS. Chuang et al.[50] have also shown that cPLA2 is a major contributor in this pathway and inhibiting this enzyme reduces the production of the neurotoxic mediators and provide neuroprotective effects. Therefore to investigate the ability of 2i in inhibiting cPLA2 in a neuroinflammatory model, BV-2 cells were treated with LPS (2 μg/mL), incubated for different time points, collected and lysed for protein extraction. […] The cPLA2 level was also determined and found to be largely constant throughout the entire activation process with a slight drop at the 24 h timepoint (Fig. 3F). Next, 2i (1, 10 and 20 μM) were incubated together with LPS in the BV-2 cells for 14 h (Fig. 4A,B). […]

BV-2 cells = assay: MTS cell proliferation assay on BV-2 cells; details: 10 μM, 48 h and 72 h, vs vehicle control
Procedure: To explore whether the inhibitors are cytotoxic, MTS assay were conducted on BV-2 cells, a murine microglial cell line derived from post-natal mouse cerebella, and HEK293T cells that are derived from human embryonic kidney. Both cell types were treated with 10 μM of 1a, 2g and 2i for 48 h and 72 h (Fig. 3A,B). Dimethyl sulfoxide (DMSO) vehicle control was also included as the compounds were dissolved in DMSO.
Cells were plated on a 96-wells plate and grown for 24 h to a density of 8000 cells per well for both HEK293T and BV-2 cells. Cells were cultured at 37 °C under a 5% CO2 environment in 100 μL of culture medium. Thereafter, the compound of interest dissolved in culture medium at a concentration of 10 μM was replaced into each well. DMSO was added as vehicle in the control group. 3 biological replicates were performed. The plates were then incubated at 37 °C with 5% CO2 for 48 h and 72 h. At each individual time point, 20 μL of CellTiter 96® AQueous One Solution (MTS reagent) was added into each well and re-incubated at 37 °C with 5% CO2 without light for 3 h. Colorimetric readings were taken using a Varioskan plate reader at 490 nm and analyzed. Three independent biological repeats with four technical replicates were performed.

Compound: CCCCC/C=C\C/C=C\C/C=C\C/C=C\CCCCC(=O)Nc1cccc(C(=O)O)c1 [2i]
- ROS level, concentration dependence [1]: dose-dependent decrease in ROS
- reduction of LPS-induced iNOS expression ([2]; 20 µM): 50%
- iNOS level, concentration dependence ([2]; 1–20 μM): dose-dependent decrease in the iNOS level
- cytotoxicity (MTS) on BV-2 cells (BV-2 cells): no significant toxic effects
